Measurements: article PMC5556071, “ATR inhibition facilitates targeting of leukemia dependence on convergent nucleotide biosynthetic pathways” (Nature Communications, 2017)
Where “and” joins values, the source holds several entries; their conditions need not be identical. Identical values can stand only once.

Tested on: CEM cells
Test: Non-targeted LC-MS metabolite profiling: percent [13C6]glucose labeling and relative metabolite levels
Type: cell-based, human
Excerpt: To further investigate the functions of dCK and ATR at the G1/S transition in CEM cells, a non-targeted liquid chromatography mass spectrometry (LC-MS) assay was used to determine the utilization of labeled [^13C6]glucose and [^13C9,^15N3]deoxycytidine, the main substrates for de novo and salvage nucleotide biosynthesis, respectively. Of the 166 metabolites identified in CEM cells treated with VE-822 and/or dCKi, 105 metabolites found in all four treatment groups contained glucose-derived ^13C atoms. […] These metabolites included intermediates such as rUTP, rCTP and rCDP in the de novo dCTP biosynthesis (Fig. 1d). […] However, several deoxyribonucleotides, including dCTP, were below the limit of detection of the non-targeted LC-MS approach, raising the concern that the sensitivity of this assay is not sufficient to measure the contribution of the salvage pathway or the ratio of de novo and salvage biosynthesis to these pools. To address this problem, a newly developed targeted MS assay was developed (Fig. 1e and Supplementary Fig. 3). In this assay, samples containing either extracted dNTPs or hydrolyzed DNA from labeled cells are separated by LC for detection by a triple quadrupole mass spectrometer using multiple reaction monitoring (LC-MS/MS-MRM). The first (Q1) and third (Q3) quadrupoles function as mass filters, while the second (Q2) quadrupole serves as a collision chamber (Fig. 1e). For instance, to profile the biosynthetic composition of deoxycytidine (dC) derived from hydrolyzed DNA or dCTP, an intact, protonated dC ion is selected in Q1, followed by fragmentation of the glycosidic bond, which releases protonated cytosine in Q2, that is filtered in Q3 and detected to generate an ion chromatogram. The peak areas for the ion chromatograms of salvage [^13C9,^15N3]dC (red trace), de novo [^13C5]dC (black trace, from [^13C6]glucose) and unlabeled dC (gray trace) (Fig. 1e) are used to determine the relative contributions of the de novo and salvage routes both to dCTP pools and to DNA-incorporated dCTP.
Cells were transferred into RPMI-1640 without glucose and supplemented with 10% dialyzed FBS (Gibco) containing the following labeled substrates: precursors for de novo [U-^13C6]glucose (Sigma-Aldrich, 389374) at 11 mM; precursors for purine salvage [U-^13C10,^15N5]dA (Cambridge Isotopes, CIL 3896), [^15N5]dA (Cambridge Isotopes, NLM-3895) and [^15N5]dG (Cambridge Isotopes, NLM-3899) at 5 µM or as indicated; and precursors for pyrimidine salvage: [U-^13C9,^15N3]dC (Silantes, 124603602) and [U-^13C10,^15N2]dT (Cambridge Isotopes, CNLM-3902) at 5 µM and [^15N2]orotate (Cambridge Isotopes, NLM-1048) at indicated concentrations. The cells were incubated for 12 h or as indicated before sample collection and processing. […]
Non-targeted LC-MS metabolic assays. 1 x 10^6 cells were washed with ice-cold 150 mM ammonium acetate twice before adding 1 mL of ice-cold 80% methanol with 10 nM norvaline as an internal standard. After vigorous vortexing, samples were centrifuged at maximum speed, the aqueous layer was transferred to a glass vial and the metabolites were dried under vacuum. Metabolites were resuspended in 50 μL 70% acetonitrile (ACN) and 5 μL of this solution used for the mass spectrometer-based analysis. The analysis was performed on a Q Exactive (Thermo Scientific) in polarity-switching mode with positive voltage 4.0 kV and negative voltage 4.0 kV. The mass spectrometer was coupled to an UltiMate 3000RSLC (Thermo Scientific) UHPLC system. Mobile phase A was 5 mM ammonium acetate (NH4AcO), pH 9.9, B was acetonitrile and the separation achieved on a Luna […] NH2 100 A column (150 × 2.0 mm, Phenomenex). The flow was 200 μL/min, and the gradient ran from 15% A to 95% A in 18 min, followed by an isocratic step for 9 min and re-equilibration for 7 min. Metabolites were detected and quantified as area under the curve based on retention time and accurate mass (≤ 3 p.p.m.) using the TraceFinder 3.1 (Thermo Scientific). Relative amounts of […]

[1] = metabolite Gln (KEGG C00064), CEM cells, 12 h following release from G1 arrest, replicates #1-#6, listed as V
[2] = metabolite Glu (KEGG C00025), CEM cells, 12 h following release from G1 arrest, replicates #1-#6, listed as V
[3] = metabolite GlucA (KEGG C00191), CEM cells, 12 h following release from G1 arrest, replicates #1-#6, listed as V
[4] = metabolite Gly (KEGG C00037), CEM cells, 12 h following release from G1 arrest, replicates #1-#6, listed as V
[5] = metabolite Glycerol (KEGG C00116), CEM cells, 12 h following release from G1 arrest, replicates #1-#6, listed as V
[6] = metabolite Glycerol-2-P (KEGG C02979), CEM cells, 12 h following release from G1 arrest, replicates #1-#6, listed as V
[7] = metabolite Glycerol-3-P (KEGG C00093), CEM cells, 12 h following release from G1 arrest, replicates #1-#6, listed as V
[8] = metabolite Homocysteine (KEGG C00155), CEM cells, 12 h following release from G1 arrest, replicates #1-#6, listed as V
[9] = metabolite Hypoxanthine (KEGG C00262), CEM cells, 12 h following release from G1 arrest, replicates #1-#6, listed as V
[10] = metabolite IMP (KEGG C00130), CEM cells, 12 h following release from G1 arrest, replicates #1-#6, listed as V
[11] = metabolite Inosine (KEGG C00294), CEM cells, 12 h following release from G1 arrest, replicates #1-#6, listed as V
[12] = metabolite a-KG (C00026), CEM cells, 12 h following release from G1 arrest, replicates #1-#6, listed as V

CNCc1ccc(-c2cc(-c3nc(-c4ccc(S(=O)(=O)C(C)C)cc4)cnc3N)on2)cc1 [VE-822]
Glucose labeling of Gln [1]: 0.12% (2×) and 0.11% and 0.10% and 0.14% and 0.13%
Relative level of Gln [1]: 1.4 and 1.5 (2×) and 1.0 (2×) and 1.1
Glucose labeling of Glu [2]: 29.64% and 29.75% and 29.30% and 29.37% and 29.63% and 30.02%
Relative level of Glu [2]: 1.1 and 1.0 (2×) and 0.8 and 0.6 (2×)
Glucose labeling of GlucA [3]: 1.00% and 0.54% and 0.16% and 1.19% and 0.18% (2×)
Relative level of GlucA [3]: 1.5 and 1.3 (2×) and 0.9 and 0.664 and 0.6
Glucose labeling of Gly [4]: 3.91% and 4.81% and 4.97% and 3.57% and 3.82% and 3.53%
Relative level of Gly [4]: 1.8 and 1.3 (2×) and 0.853 and 0.8 and 0.846
Glucose labeling of Glycerol [5]: 0.0369% (3×) and 0.02% and 0.03% and 0.0184%
Relative level of Glycerol [5]: 0.6 and 1.0 and 0.643 and 1.2 (2×) and 2.5
Glucose labeling of Glycerol-2-P [6]: 20.62% and 19.08% and 14.73% and 9.01% and 11.61% and 10.03%
Relative level of Glycerol-2-P [6]: 2.7 and 1.2 and 1.6 and 1.8 and 0.334 and 0.262
Glucose labeling of Glycerol-3-P [7]: 13.71% and 13.99% and 13.43% and 15.94% and 16.61% and 16.91%
Relative level of Glycerol-3-P [7]: 1.3 and 1.4 (2×) and 1.0 (2×) and 0.9
Glucose labeling of HS2O3 (metabolite HS2O3 (KEGG C00320), CEM cells, 12 h following release from G1 arrest, replicates #1-#6): 100.00%
Relative level of HS2O3 (metabolite HS2O3 (KEGG C00320), CEM cells, 12 h following release from G1 arrest, replicates #1-#6, listed as V): 1.2 and 0.9 and 1.0 (3×) and 1.1
Glucose labeling of His (metabolite His (KEGG C00135), CEM cells, 12 h following release from G1 arrest, replicates #1-#6): 0.00%
Relative level of His (metabolite His (KEGG C00135), CEM cells, 12 h following release from G1 arrest, replicates #1-#6, listed as V): 1.3 and 1.5 and 1.4 and 0.7 and 0.8 (2×)
Glucose labeling of Homocysteine [8]: 0.000288% and 0.000653% and 0.00102% and 0.000955% and 0.0737% (2×)
Relative level of Homocysteine [8]: 2.9 and 3.8 and 5.4 and 40.5 and 0.9 and 1.3
Glucose labeling of Hypoxanthine [9]: 0.12% (2×) and 0.05% and 0.0153% and 0.00222% and 0.0636%
Relative level of Hypoxanthine [9]: 2.4 and 3.2 and 4.8 and 46.0 and 2.3 and 1.3
Glucose labeling of IMP [10]: 85.88% and 80.98% and 88.08% and 72.70% and 96.97% and 95.32%
Relative level of IMP [10]: 2.4 and 1.3 (2×) and 1.7 and 0.4 (2×)
Glucose labeling of Inosine [11]: 46.28% and 0.55% and 45.89% and 28.71% and 31.06% and 6.95%
Relative level of Inosine [11]: 1.9 and 1.5 and 4.0 and 5.0 and 1.2 and 4.1
Glucose labeling of Inositol (metabolite Inositol (KEGG C00137), CEM cells, 12 h following release from G1 arrest, replicates #1-#6): 0.00%
Relative level of Inositol (metabolite Inositol (KEGG C00137), CEM cells, 12 h following release from G1 arrest, replicates #1-#6, listed as V): 1.2 and 1.3 (2×) and 1.0 (3×)
Glucose labeling of Isocaproate (metabolite Isocaproate (X00005), CEM cells, 12 h following release from G1 arrest, replicates #1-#6): 0.00%
Relative level of Isocaproate (metabolite Isocaproate (X00005), CEM cells, 12 h following release from G1 arrest, replicates #1-#6, listed as V): 0.949 and 1.1 and 1.2 and 0.9 and 1.0 and 0.7
Glucose labeling, a-KG [12]: 12.64% and 3.49% and 7.53% and 10.05% and 2.98% and 1.28%
Relative level, a-KG [12]: 1.7 and 0.7 and 1.0 and 0.9 and 0.3 and 0.255
decrease of glucose labeling of orotidine monophosphate (OMP) (non-targeted LC-MS analysis): 30%
